This note sets out measurements from patent publication US20040142944A1, “Compositions for nasal application” (priority 2001, published 2004).

The data set is described as follows: nasal administration of cGMP PDE inhibitors with added local anaesthetic. It is filed as in vivo.

SMILES strings stand for the structures. Entries after “also recorded” stand apart in the source; their conditions may differ.

In the case of `OCc1ccccc1` [benzyl alcohol], the “local irritation of the nasal mucosa” value is on record as “led to local irritation of the nasal mucosa”. Also, the “ability to reduce or prevent the disadvantages occurring on nasal administration of cGMP PDE inhibitors (unpleasant nasal condition, eye-watering, increased nasal airway resistance, nasal blockage)” value (added to cGMP PDE inhibitor) is on record as “unable to reduce or prevent the disadvantages; also recorded: unsuitable for overcoming the disadvantages”.
